≈ marks a conversion by molar mass, not a printed value.
What was measured:
Format in all cases: functional
Candida albicans [1] = test: Tested for antifungal activity against Candida albicans CIP 1180-79 after 48 h incubation
Candida albicans [2] = test: Tested for antifungal activity against azole resistant strain Candida albicans CIP 1760-88 after 48 hr incubation
Candida tropicalis [3] = test: Tested for antifungal activity against 5-FC resistant strain Candida tropicalis CIP 1745-88 after 48 hr incubation
Candida tropicalis [4] = test: Tested for antifungal activity against amp B resistant strain Candida tropicalis CIP 1275-81 after 48 hr incubation
Saccharomyces cerevisiae = test: Tested for antifungal activity against Saccharomyces cerevisiae ATCC 28 383 after 48 hr incubation; settings: ATCC 28, 48 h

Row | SMILES | MIC (Candida albicans [1]) [µg/mL] | MIC (Candida albicans [2]) [µg/mL] | MIC (Candida tropicalis [3]) [µg/mL] | MIC (Candida tropicalis [4]) [µg/mL] | MIC (Saccharomyces cerevisiae) [µg/mL]
1 | CC(C)CCC[C@@H](C)C1CC[C@H]2[C@@H]3[C@@H](N)CC4C[C@@H](O)CC[C@]4(C)[C@H]3CC[C@]12C (some centres undefined) | 1.5 (≈ 3.72 µM) | 1.5 (≈ 3.72 µM) | 3.1 (≈ 7.68 µM) | 1.5 (≈ 3.72 µM) | 0.4 (≈ 0.991 µM)
2 | CC(C)CCC[C@@H](C)C1CC[C@H]2[C@@H]3[C@H](N)CC4C[C@@H](O)CC[C@]4(C)[C@H]3CC[C@]12C (some centres undefined) | 6.2 (≈ 15.4 µM) | 3.1 (≈ 7.68 µM) | 3.1 (≈ 7.68 µM) | 1.5 (≈ 3.72 µM) | 3.1 (≈ 7.68 µM)
3 | CC(C)CCCC(C)[C@H]1CC[C@H]2C3C(N)C=C4C[C@@H](O)CCC4(C)[C@H]3CCC12C (some centres undefined) | 2.6 (≈ 6.47 µM) | 2.3 (≈ 5.73 µM) | 3.1 (≈ 7.72 µM) | 1.5 (≈ 3.73 µM) | 2.4 (≈ 5.97 µM)
4 | C[C@@H]1[C@H](O)[C@@H](C)/C=C/C=C/C=C/C=C/C=C/C=C/C=C/[C@H](O[C@@H]2O[C@H](C)[C@@H](O)[C@H](N)[C@@H]2O)C[C@@H]2O[C@](O)(C[C@@H](O)C[C@@H](O)[C@H](O)CC[C@@H](O)C[C@@H](O)CC(=O)O[C@H]1C)C[C@H](O)[C@H]2C(=O)O [AMPHOTERICIN B] | 0.4 (≈ 0.433 µM) | – | – | 12.5 (≈ 13.5 µM) | 0.3 (≈ 0.325 µM)
5 | c1ccc(-c2ccc(C(c3ccccc3)n3ccnc3)cc2)cc1 (centres undefined) [BIFONAZOLE] | 12.5 (≈ 40.3 µM) | 50 (≈ 161 µM) | – | – | 6.2 (≈ 20 µM)
6 | Nc1nc(=O)[nH]cc1F [FLUCYTOSINE] | 50 (≈ 387 µM) | – | > 100 | – | 6.2 (≈ 48 µM)
